Experimental data reported in the NIST ThermoML archive (doi:10.1021/je050544m).
± gives the expanded uncertainty stated by the source.

Test: activity coefficient (dimensionless); of the first substance listed, at infinite dilution; xn = mol fraction of the nth substance listed
Conditions: 101 kPa, Liquid, x1 = 0

SMILES | activity coefficient (303 K, Chromatography) | activity coefficient (323 K, Chromatography) | activity coefficient (343 K, Chromatography) | activity coefficient (303 K, Differential ebulliometry) | activity coefficient (323 K, Differential ebulliometry) | activity coefficient (343 K, Differential ebulliometry)
C=CCCCC [hex-1-ene] + CCn1cc[n+](C)c1.F[B-](F)(F)F | 46.2 ± 4.9 | 43.2 ± 4.5 | 36.6 ± 3.9 |  |  | 
c1ccccc1 [benzene] + CCCCCCCC[n+]1ccn(C)c1.F[B-](F)(F)F | 1.28 ± 0.13 | 1.29 ± 0.13 | 1.29 ± 0.13 |  |  | 
Cc1ccccc1 [toluene] + CCCCCCCC[n+]1ccn(C)c1.F[B-](F)(F)F |  | 1.75 ± 0.18 | 1.82 ± 0.19 |  |  | 
CO [methanol] + CCCCCCCC[n+]1ccn(C)c1.F[B-](F)(F)F | 1.09 ± 0.11 | 0.94 ± 0.1 | 0.85 ± 0.09 |  |  | 
ClC(Cl)(Cl)Cl [tetrachloromethane] + CCCCn1cc[n+](C)c1.F[B-](F)(F)F |  | 5.5 ± 0.58 | 5.73 ± 0.6 |  |  | 
C1CCCCC1 [cyclohexane] + CCCCCCn1cc[n+](C)c1.F[B-](F)(F)F |  |  |  | 18.6 ± 1.9 | 16.5 ± 1.6 | 15.2 ± 1.5
CCCCCC [hexane] + CCn1cc[n+](C)c1.F[B-](F)(F)F | 125 ± 13 | 113 ± 12 | 64.8 ± 6.8 |  |  | 
CC(C)=O [acetone] + CCCCCCn1cc[n+](C)c1.F[B-](F)(F)F |  | 0.85 ± 0.09 | 0.91 ± 0.09 |  |  | 
ClC=C(Cl)Cl [trichloroethene] + CCn1cc[n+](C)c1.F[B-](F)(F)F |  | 3.66 ± 0.38 | 3.79 ± 0.4 |  |  | 
ClC=C(Cl)Cl [trichloroethene] + CCCCn1cc[n+](C)c1.F[B-](F)(F)F |  | 3.98 ± 0.42 | 4.32 ± 0.45 |  |  | 
CCOCC [diethyl ether] + CCCCCCCC[n+]1ccn(C)c1.F[B-](F)(F)F |  | 3.2 ± 0.34 | 3.39 ± 0.36 |  |  | 
ClCCCl [1,2-dichloroethane] + CCCCCCn1cc[n+](C)c1.F[B-](F)(F)F |  | 1.06 ± 0.11 | 1.19 ± 0.12 |  |  | 
C=CCCCC [hex-1-ene] + CCCCn1cc[n+](C)c1.F[B-](F)(F)F | 35.4 ± 3.7 | 32.2 ± 3.4 | 30.5 ± 3.2 |  |  | 
ClCCCl [1,2-dichloroethane] + CCCCCCCC[n+]1ccn(C)c1.F[B-](F)(F)F |  | 0.93 ± 0.09 | 0.95 ± 0.1 |  |  | 
ClC(Cl)(Cl)Cl [tetrachloromethane] + CCCCCCCC[n+]1ccn(C)c1.F[B-](F)(F)F |  | 2.39 ± 0.25 | 2.62 ± 0.28 |  |  | 
CCOC(C)=O [ethyl acetate] + CCn1cc[n+](C)c1.F[B-](F)(F)F |  | 3.08 ± 0.32 | 3.32 ± 0.35 |  |  | 
CCc1ccccc1 [ethylbenzene] + CCCCCCn1cc[n+](C)c1.F[B-](F)(F)F |  | 3.63 ± 0.38 | 4.05 ± 0.43 |  |  | 
CCOC(C)=O [ethyl acetate] + CCCCn1cc[n+](C)c1.F[B-](F)(F)F |  | 2.86 ± 0.3 | 2.99 ± 0.31 |  |  | 
CCCCCCC [heptane] + CCCCn1cc[n+](C)c1.F[B-](F)(F)F | 134 ± 14 | 115 ± 12 | 99 ± 10 |  |  | 
CC(C)=O [acetone] + CCCCn1cc[n+](C)c1.F[B-](F)(F)F |  | 1.05 ± 0.11 | 1.11 ± 0.11 |  |  | 
Cc1ccccc1 [toluene] + CCCCCCn1cc[n+](C)c1.F[B-](F)(F)F |  |  | 2.61 ± 0.27 |  |  | 
CCOCC [diethyl ether] + CCCCn1cc[n+](C)c1.F[B-](F)(F)F |  |  | 8.05 ± 0.85 |  |  | 

SMILES | activity coefficient (303 K, Chromatography) | activity coefficient (323 K, Chromatography) | activity coefficient (343 K, Chromatography) | activity coefficient (303 K, Differential ebulliometry) | activity coefficient (323 K, Differential ebulliometry) | activity coefficient (343 K, Differential ebulliometry)
CCOCC [diethyl ether] + CCCCCCn1cc[n+](C)c1.F[B-](F)(F)F |  |  | 2.53 ± 0.27 |  |  | 
ClC=C(Cl)Cl [trichloroethene] + CCCCCCCC[n+]1ccn(C)c1.F[B-](F)(F)F |  | 1.67 ± 0.17 | 1.76 ± 0.18 |  |  | 
CC(C)=O [acetone] + CCn1cc[n+](C)c1.F[B-](F)(F)F |  | 1.11 ± 0.11 | 1.14 ± 0.12 |  |  | 
ClC(Cl)Cl [trichloromethane] + CCn1cc[n+](C)c1.F[B-](F)(F)F |  | 0.73 ± 0.08 | 0.84 ± 0.09 |  |  | 
Cc1ccccc1 [toluene] + CCn1cc[n+](C)c1.F[B-](F)(F)F |  |  | 4.03 ± 0.42 |  |  | 
CCc1ccccc1 [ethylbenzene] + CCCCCCCC[n+]1ccn(C)c1.F[B-](F)(F)F |  | 2.35 ± 0.25 | 2.66 ± 0.28 |  |  | 
CCCCCCC [heptane] + CCCCCCn1cc[n+](C)c1.F[B-](F)(F)F | 47.7 ± 5 | 39.9 ± 4.2 | 33.6 ± 3.5 |  |  | 
CCc1ccccc1 [ethylbenzene] + CCn1cc[n+](C)c1.F[B-](F)(F)F |  | 7.05 ± 0.74 | 6.87 ± 0.72 |  |  | 
CCC(C)=O [butanone] + CCCCCCCC[n+]1ccn(C)c1.F[B-](F)(F)F |  | 1.01 ± 0.1 | 1.04 ± 0.11 |  |  | 
Cc1ccccc1 [toluene] + CCCCn1cc[n+](C)c1.F[B-](F)(F)F |  | 4.14 ± 0.44 | 4.13 ± 0.43 |  |  | 
C1CCCCC1 [cyclohexane] + CCCCCCCC[n+]1ccn(C)c1.F[B-](F)(F)F | 8.52 ± 0.9 | 7.99 ± 0.84 | 7.36 ± 0.77 |  |  | 
CC(C)CC(C)(C)C [2,2,4-trimethylpentane] + CCCCCCCC[n+]1ccn(C)c1.F[B-](F)(F)F |  | 17.7 ± 1.9 | 17 ± 1.8 |  |  | 
CCOC(C)=O [ethyl acetate] + CCCCCCn1cc[n+](C)c1.F[B-](F)(F)F |  | 5.58 ± 0.59 | 5.48 ± 0.58 |  |  | 
CCC(C)=O [butanone] + CCn1cc[n+](C)c1.F[B-](F)(F)F |  | 1.66 ± 0.17 | 1.77 ± 0.18 |  |  | 
CC(C)CC(C)(C)C [2,2,4-trimethylpentane] + CCCCCCn1cc[n+](C)c1.F[B-](F)(F)F | 54.1 ± 5.7 |  | 44.5 ± 4.7 |  |  | 
ClCCCl [1,2-dichloroethane] + CCCCn1cc[n+](C)c1.F[B-](F)(F)F |  | 1.51 ± 0.16 | 1.63 ± 0.17 |  |  | 
ClC(Cl)Cl [trichloromethane] + CCCCCCCC[n+]1ccn(C)c1.F[B-](F)(F)F |  | 0.62 ± 0.07 | 0.7 ± 0.07 |  |  | 
ClC=C(Cl)Cl [trichloroethene] + CCCCCCn1cc[n+](C)c1.F[B-](F)(F)F |  |  | 2.53 ± 0.27 |  |  | 
CCOC(C)=O [ethyl acetate] + CCCCCCCC[n+]1ccn(C)c1.F[B-](F)(F)F |  | 1.55 ± 0.16 | 1.62 ± 0.17 |  |  | 
CC(C)=O [acetone] + CCCCCCCC[n+]1ccn(C)c1.F[B-](F)(F)F |  | 0.78 ± 0.08 | 0.83 ± 0.09 |  |  | 
CCCO [propan-1-ol] + CCCCCCCC[n+]1ccn(C)c1.F[B-](F)(F)F |  | 1.44 ± 0.15 | 1.27 ± 0.13 |  |  | 
C=CCCCC [hex-1-ene] + CCCCCCCC[n+]1ccn(C)c1.F[B-](F)(F)F | 7.92 ± 0.83 | 7.51 ± 0.79 | 7.42 ± 0.78 |  |  | 

SMILES | activity coefficient (303 K, Chromatography) | activity coefficient (323 K, Chromatography) | activity coefficient (343 K, Chromatography) | activity coefficient (303 K, Differential ebulliometry) | activity coefficient (323 K, Differential ebulliometry) | activity coefficient (343 K, Differential ebulliometry)
ClC(Cl)Cl [trichloromethane] + CCCCn1cc[n+](C)c1.F[B-](F)(F)F |  | 1.13 ± 0.12 | 1.29 ± 0.13 |  |  | 
CCCCCC [hexane] + CCCCCCCC[n+]1ccn(C)c1.F[B-](F)(F)F | 13.2 ± 1.4 | 12.8 ± 1.4 | 12.2 ± 1.3 |  |  | 
CCc1ccccc1 [ethylbenzene] + CCCCn1cc[n+](C)c1.F[B-](F)(F)F |  | 6.65 ± 0.7 | 7.2 ± 0.76 |  |  | 
ClC(Cl)Cl [trichloromethane] + CCCCCCn1cc[n+](C)c1.F[B-](F)(F)F |  | 0.81 ± 0.08 | 0.92 ± 0.09 |  |  | 
CC(C)O [propan-2-ol] + CCCCCCCC[n+]1ccn(C)c1.F[B-](F)(F)F |  | 1.41 ± 0.15 | 1.27 ± 0.13 |  |  | 
CCC(C)=O [butanone] + CCCCn1cc[n+](C)c1.F[B-](F)(F)F |  | 1.64 ± 0.17 | 1.72 ± 0.18 |  |  | 
c1ccccc1 [benzene] + CCCCCCn1cc[n+](C)c1.F[B-](F)(F)F | 1.63 ± 0.17 | 1.65 ± 0.17 | 1.68 ± 0.18 |  |  | 
CCO [ethanol] + CCCCCCCC[n+]1ccn(C)c1.F[B-](F)(F)F |  | 1.24 ± 0.13 | 1.1 ± 0.11 |  |  | 
CCCO [propan-1-ol] + CCn1cc[n+](C)c1.F[B-](F)(F)F |  | 0.95 | 0.87 |  |  | 
CO [methanol] + CCCCn1cc[n+](C)c1.F[B-](F)(F)F | 1.32 ± 0.14 | 1.21 ± 0.12 | 1.07 ± 0.11 |  |  | 
CCO [ethanol] + CCCCn1cc[n+](C)c1.F[B-](F)(F)F |  | 1.91 ± 0.2 | 1.63 ± 0.17 |  |  | 
CCO [ethanol] + CCn1cc[n+](C)c1.F[B-](F)(F)F |  | 0.76 ± 0.08 |  |  |  | 
C1CCCCC1 [cyclohexane] + CCn1cc[n+](C)c1.F[B-](F)(F)F | 53.7 ± 5.7 | 46.2 ± 4.9 | 38.9 ± 4.1 |  |  | 
CC(C)O [propan-2-ol] + CCn1cc[n+](C)c1.F[B-](F)(F)F |  | 1.05 ± 0.11 | 1.01 ± 0.1 |  |  | 
CC(C)O [propan-2-ol] + CCCCCCn1cc[n+](C)c1.F[B-](F)(F)F |  | 1.61 ± 0.17 | 1.57 ± 0.16 |  |  | 
CO [methanol] + CCCCCCn1cc[n+](C)c1.F[B-](F)(F)F | 1.19 ± 0.12 | 1.08 ± 0.11 | 0.99 ± 0.1 |  |  | 
CCCCCC [hexane] + CCCCCCn1cc[n+](C)c1.F[B-](F)(F)F | 34.8 ± 3.7 | 29.6 ± 3.1 | 26.1 ± 2.7 |  |  | 
CCCO [propan-1-ol] + CCCCn1cc[n+](C)c1.F[B-](F)(F)F |  | 2.64 ± 0.28 | 2.28 ± 0.24 |  |  | 
c1ccccc1 [benzene] + CCn1cc[n+](C)c1.F[B-](F)(F)F | 2.42 ± 0.25 | 2.51 ± 0.26 | 2.47 ± 0.26 |  |  | 
ClC(Cl)(Cl)Cl [tetrachloromethane] + CCCCCCn1cc[n+](C)c1.F[B-](F)(F)F |  | 3.3 ± 0.35 | 3.61 ± 0.38 |  |  | 
CCCO [propan-1-ol] + CCCCCCn1cc[n+](C)c1.F[B-](F)(F)F |  | 1.86 ± 0.19 | 1.63 ± 0.17 |  |  | 
